Assay results: US10584103B2 (Sanford Burnham Prebys Medical Discovery Institute, priority 2014, dated 2020)

Tests used:
[1] = target: NTR1 (Homo sapiens (Human), UniProt P30989); assay: NTR1 dose response, high-content imaging assay in NTR1-U2OS cells (beta-arrestin-GFP); format: cell-based
Excerpt: The cell lines utilized in the high-content imaging assays, which include the NTR1-, NTR2-, and GPR35-U2OS osteosarcomas, were obtained from the laboratory of Dr. Lawrence Barak at the Duke University Medical Center. The media used in the culture of the cell lines, as well as the assays themselves, consisted of Minimum Essential Medium (15-010-CM) and L-glutamine (25-005-CL) from Cellgro/Mediatech (Manassas, Va.), fetal bovine serum (SH30396.03) from Hyclone (Logan, Utah), penicillin-streptomycin solution (PS-20) from Omega Scientific in Tarzana, Calif., G418 (ant-gn-1) from Invivogen (San Diego, Calif.), and zeocin (R250-01) from Invitrogen (Carlsbad, Calif.). Cell lines were cultured in T225 tissue culture flasks (431082) supplied by Corning (Corning, N.Y.). Additional reagents employed include Dulbecco's Phosphate-Buffered Saline (DPBS) (21-031CV) from Cellgro/Mediatech, Trypsin-EDTA 0.05% (25300) from Invitrogen, paraformaldehyde (30528954) from Acros Organics (Geel, Belgium), Hoechst 33342 (H3570) from Invitrogen. The high-content assays were run in 1536-well plates (29326) supplied by Aurora Biotechnology (Poway, Calif.) and utilized aluminum plate seals (T592100) from E&K Scientific (Santa Clara, Calif.). […]

[2] = system: neurotensin-deficient mice; settings: cited from earlier work

Sequence of NTR1 (P30989 whole entry, species assumed): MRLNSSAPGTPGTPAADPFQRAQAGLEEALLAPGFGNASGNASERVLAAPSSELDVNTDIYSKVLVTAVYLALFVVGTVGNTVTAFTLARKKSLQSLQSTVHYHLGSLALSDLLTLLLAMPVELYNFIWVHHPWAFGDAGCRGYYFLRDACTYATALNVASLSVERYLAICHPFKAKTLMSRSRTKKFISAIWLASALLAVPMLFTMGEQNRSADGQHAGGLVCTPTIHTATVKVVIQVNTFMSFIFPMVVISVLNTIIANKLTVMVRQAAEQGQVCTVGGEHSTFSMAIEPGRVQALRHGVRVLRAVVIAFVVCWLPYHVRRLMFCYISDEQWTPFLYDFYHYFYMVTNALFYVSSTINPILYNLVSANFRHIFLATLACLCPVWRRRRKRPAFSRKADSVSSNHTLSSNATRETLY

EC50 [1] | SMILES | augmentation of PPI [2]
et | C#Cc1nc(N2CCC(c3ccccc3OC)CC2)c2cc(N(C)CCO)ccc2n1 [Example 192, 2-({2-Ethynyl-4-[4-(2-methoxy-phenyl)-piperidin-1-yl]-quinazolin-6-yl}-methyl-amino)-ethanol] | 
 | CN1CCN(C2=Nc3cc(Cl)ccc3Nc3ccccc32)CC1 [clozapine] | augmented PPI normally
 | O=C(CCCN1CCC(O)(c2ccc(Cl)cc2)CC1)c1ccc(F)cc1 [haloperidol] | ineffective
 | OCCOCCN1CCN(C2=Nc3ccccc3Sc3ccccc32)CC1 [quetiapine] | ineffective
